# Experiments:
# [1] = molecular target: GST-Pin1 (Homo sapiens, UniProt Q13526); assay: Fluorescence polarization (FP) competition assay; assay type: binding
# Method: Binding affinity to Pin1 was determined using a fluorescence polarization assay to assess competition with an N-terminal fluorescein-labeled peptide (Bth-D-phosThr-Pip-Nal), which was obtained from JPT Peptide Technologies and Proteintech Group. The indicated concentrations of candidate compound were pre-incubated for 12 hours at 4° C. with a solution containing 250 nM glutathione S-transferase (GST)-Pin1, 5 nM of fluorescein-labeled peptide probe, 10 μg/ml bovine serum albumin, 0.01% Tween-20 and 1 mM DTT (dithiothreitol) in a buffer of 10 mM HEPES, 10 mM NaCl and 1% glycerol (pH 7.4). Measurements of FP were performed in black 384-well plates (Corning) using an EnVision™ reader. Apparent Ki values (under the tested conditions) obtained from the FP assay results were derived from the Kenakin Ki equation:
# Kenakin Ki=(Lb)(EC50)(Kd)/(Lo)(Ro)+Lb(Ro−Lo+Lb−Kd)
# Sittampalam G. S. et al., Eli Lilly & Company and the National Center for Advancing Translational Sciences, 2004].
# Covalent labeling of Pin1 was confirmed to translate into enzyme inhibition via a fluorescence polarization (FP) competition assay using a FITC-labeled substrate mimetic peptide inhibitor, as well as a chymotrypsin-coupled PPIase assay, using procedures described in Wei et al. [Nat Med 2015, 21:457-466].
# The fluorescent polarization assay was performed in a dose-dependent and time-dependent manner, in order to further characterize the kinetic parameters of Pin1-3 binding to Pin1.
# [2] = tested on: Pin1-knockout 8988T pancreatic cancer cells; assay: Prolonged-treatment cell growth, Pin1-knockout 8988T; assay type: cell-based; settings: 1 μM
# Method: The ability of Pin1-3 treatment to induce more pronounced anti-proliferative effects after prolonged treatment (6-8 days) was then assessed. In order to ensure that target engagement was maintained for the duration of the experiment, Pin1-3 was replenished in fresh media every 48 hours.
# The effect of Pin1-binding compounds on 8988T pancreatic adenocarcinoma cells was assessed by incubating cells with 1 μM Pin1-3, and evaluating cell growth relative to cells incubated with vehicle (DMSO) alone. In order to confirm that the effect of Pin1-3 is mediated by Pin1, the experiment was repeated using Pin1 knockout cells.
# [3] = tested on: Myc transcriptional output in Mino B cells; assay: RNA sequencing and gene set enrichment; assay type: cell-based, human; settings: 1 μM, 6 hours
# Method: Mino cells (acquired from the ATCC) were grown at 37° C. in a 5% CO2 humidified incubator and cultured in RPMI-1640 (Biological Industries), supplemented with 15% fetal bovine serum (Biological Industries) and 1% pen-strep solution (Biological Industries). 11×10^6 cells were incubated with 1 μM Pin1-3 (0.02% DMSO) or with 0.02% DMSO in triplicates for 6 hours. Total RNA was isolated with RNeasy™ kit (Qiagen). RNA libraries were prepared from 2 μg total RNA using SENSE™ mRNA-Seq library prep kit V2 (Lexogen). Total RNA and library quality was analyzed using Qubit™ fluorometric and TapeStation™ analysis (Agilent). Samples were sequenced using NextSeg™ 500/550 High Output Kit v2.5 (Illumina) on NextSeg™ 550.
# RNA-seq reads were aligned to the human genome (hg19 assembly) using STAR [Dobin et al., Bioinformatics 2013, 29:15-21] and gene expression was determined using RSEM [L1 & Dewey, BMC Bioinformatics 2011, 12:323] and RefSeq annotations. Differential expression was computed using DESeq2 [Love et al., Genome Biol 2014, 15:550] with default parameters.
# In order to test whether Pin1-3 affects Myc transcriptional output, Mino B cells were treated with Pin1-3 (1 μM) for 6 hours (in triplicates) or vehicle (DMSO), followed by a global RNA sequencing analysis to detect differentially expressed genes as the result of this perturbation. […]
# [4] = Metabolic stability in hepatic microsomes; assay type: in vitro ADME; settings: liver microsomes; mouse hepatic microsomes
# [5] = Acute toxic model; assay type: in vivo, mice; settings: 10, 20 or 40 mg/kg intraperitoneally every day for two weeks
# Method: Toxicity of Pin1-3 was then evaluated in an acute toxic model. Mice were injected with 10, 20 or 40 mg/kg Pin1-3 intraperitoneally every day for two weeks.
# [6] = tested on: PDX (patient-derived xenograft) tumors; assay: PDX orthotopic xenograft mouse model; assay type: in vivo; settings: IP 2 or 4 mg/kg every day, 6 weeks
# Method: 4×2 mm PDX (patient-derived xenograft) tumors were transplanted into NSC mouse pancreas (orthotopic xenografts). After 1 week of the transplantation, treatment of mice with Pin1-3 began. Mice were treated (IP) with Pin1-3 diluted solution (as a control), or 2 or 4 mg/kg […] every day. Tumor size were measured and mice were sacrificed after 6 weeks to collect tumor tissue (n=5).
# [7] = molecular target: cysteine targets throughout the proteome, MDA-MB-231 cells (Homo sapiens, UniProt Q13526); assay: rdTOP-ABPP profiling of reactive cysteines; settings: 5 μM, two biological replicates
# cysteine targets throughout the proteome, MDA-MB-231 cells (Homo sapiens, UniProt Q13526), sequence (Q13526 whole entry): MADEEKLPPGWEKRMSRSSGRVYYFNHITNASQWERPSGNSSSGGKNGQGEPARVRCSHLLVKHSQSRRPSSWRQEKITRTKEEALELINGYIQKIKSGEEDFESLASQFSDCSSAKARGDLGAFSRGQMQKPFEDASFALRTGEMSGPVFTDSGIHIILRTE
# Method: (§1) MDA-MB-231 cells were cultured at 37° C. under a 5% CO2 atmosphere in DMEM culture medium supplemented with 10% FBS and 1% PS. Cells were grown to 70% confluence and incubated with DMSO or 5 μM Pin1-3 for 2 hours with serum-free medium. Cells were harvested, lysed by sonication in ice-cold PBS containing 0.1% Triton™ X-100 and centrifuged at 100,000 g for 30 minutes to remove cell debris. Then protein concentrations were determined by BCA protein assay. Proteomes were normalized to 2 mg/ml in 1 ml for each sample. Each of the DMSO and Pin1-3 incubated proteomes was treated with 100 μM iodoacetamide alkyne for 1 hour at room temperature. […] Finally, the samples were prepared, analyzed on LC-MS/MS and quantified according to procedures described in Yang et al. [Anal Chem 2018, 90:9576-9582]. […] LC-MS/MS data was analyzed by ProLuCID™ algorithm (as described by Xu et al. [J Proteomics 2015, 129:16-24]) with static modification of cysteine (+57.0215 Da) and variable oxidation of methionine (+15.9949 Da). […] The ratios were quantified by CImage™ software [Weerapana et al., Nature 2010, 468, 790-795].
# (§2) This variant of the isoTOP-ABPP technique enables the site-specific quantification of cysteine binding by label-free covalent inhibitors. […] After enrichment on beads, the peptides were isotopically derivatized by triplex reductive dimethylation, cleaved and analyzed via LC-MS/MS analysis.
# [8] = tested on: cysteine targets throughout the proteome, MDA-MB-231 cells; assay: rdTOP-ABPP profiling of reactive cysteines; settings: 5 μM
# Method: as §1, §2
# GST-Pin1, sequence (Q13526 whole entry): as above
smiles,measurement,setting,value
"CC(C)(C)CN(C(=O)CCl)C1CCS(=O)(=O)C1 (stereo not shown) [Pin1-3, 2-chloro-N-(sulfolan-3-yl)-N-neopentylacetamide]",Ki,"[1]; FP assay, competition with fluorescein-labeled peptide, 250 nM GST-Pin1, read-out: Ki (apparent)",110 nM
same,kinact,[1]; dose-dependent and time-dependent FP assay,0.0005 s⁻¹
same,kinact/KI,"[1]; dose-dependent and time-dependent FP assay, read-out: Kinact/Ki (apparent)",29000 M⁻¹ s⁻¹
same,Cell viability / growth,[2],no considerable effect
same,"Myc transcriptional signature (Enrichr, ENCODE TF ChIP-seq sets)",[3],significant downregulation of Myc's transcriptional signature
same,Number of genes significantly downregulated,[3],206 genes
same,half-life,[4],41 min
same,Adverse effects,[5],No adverse effects
same,Post-mortem examination,[5],no pathologies
same,Weight,[5],normal
same,PDX tumor growth,[6],inhibited PDX tumor growth in mice in a dose-dependent manner
same,"Competition ratio R, Cys113 of Pin1",[7],15
same,"Competition ratio R, all other identified cysteines",[8],below 2.5

# From patent US20210332024A1, “MODULATORS OF PIN1 ACTIVITY AND USES THEREOF” (Yeda Research and Development Co. Ltd., priority 2019, published 2021)
